Values quoted from earlier work as cited in PMC6443429 (Molecular pharmaceutics, 2019).

Assays:
[1] = system: MC1R, B16/F10 melanoma cells
[2] = system: MC1R, B16/F1 melanoma cells

## 1,4,7,10-tetraazacyclononane-1,4,7,10-tetraacetic acid-Gly-Gly-Nle-c[Asp-His-DPhe-Arg-Trp-Lys]-CONH2 (sidechain bridge or staple) [DOTA-GGNle-CycMSHhex]
[1]
  MC1R binding affinity: nanomolar
[2]
  MC1R binding affinity: nanomolar
